Data: the NIST ThermoML archive (doi:10.1016/j.fluid.2007.07.002)

Test: xn = mol fraction of the nth substance listed
Conditions: 298.15 K, 101 kPa, Liquid

C=COCCC [propyl vinyl ether] + CC(C)CC(C)(C)C
Conditions	mass density [kg/m3]
x1 = 0.0468	690
x1 = 0.1011	692.6
x1 = 0.1999	697.5
x1 = 0.2997	703
x1 = 0.399	709
x1 = 0.5009	715.9
x1 = 0.6008	723.4
x1 = 0.7005	731.6
x1 = 0.7997	740.8
x1 = 0.8991	751.2
x1 = 0.9507	757.1

C=COCCC [propyl vinyl ether] + CCCO
Conditions	mass density [kg/m3]
x1 = 0.051	798.7
x1 = 0.1008	796.3
x1 = 0.2001	791.7
x1 = 0.2995	787.3
x1 = 0.4016	782.9
x1 = 0.4983	779.1
x1 = 0.5999	775.3
x1 = 0.7013	771.8
x1 = 0.7977	768.7
x1 = 0.8977	765.7
x1 = 0.9507	764.3

CC(C)CC(C)(C)C [2,2,4-trimethylpentane] + CCCO
Conditions	mass density [kg/m3]
x2 = 0.0531	690.2
x2 = 0.098	692.4
x2 = 0.1986	698.3
x2 = 0.2981	705.1
x2 = 0.3987	713.1
x2 = 0.4987	722.3
x2 = 0.5987	732.9
x2 = 0.6994	745.8
x2 = 0.8007	761
x2 = 0.9	779.2
x2 = 0.9499	789.6
